Test systems include UACC-62; OVCAR-8; IGROV-1; SF-539; 786-0; SK-MEL-5; SF-295; PC-3; SN12C; UACC-257; OVCAR-3; NCI/ADR-RES; MDA-N; HCT-116; A549; CCRF-CEM; Hs-578T; HOP-92; CAKI-1; HL-60.
Common to all, as to experiment: NCI-60 cell line screen, 48 h

Structures are written as SMILES.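 Following 48 hours of exposure in 96-well plates, responses at five concentrations were used to interpolate endpoints linearly. GI50: concentration for 50% inhibition of growth.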 The source made the active and inactive calls. No stated cut-off is given here; in the data, active = GI50 up to about 1.1 µM and inactive = higher. Peptide text beside a SMILES is read from it. * marks the point of attachment. Boc = CC(C)(C)OC(=O)*

On to `CCOCC(NC(=O)C(CC(C)C)NC(=O)OC(C)(C)C)C(N)=O` (stereo not drawn) (Boc-Leu-Ser(Et)-NH2; configuration not given here), for which the GI50 in the assay with UACC-62, with OVCAR-8, in the assay with IGROV-1, in the assay on SF-539, in the assay with 786-0 and in the assay on SK-MEL-5 was > 100 µM (inactive) in each case. Further, the GI50 in the assay with SF-295, with PC-3, with SN12C, in the assay with UACC-257, with OVCAR-3 and in the assay with NCI/ADR-RES was > 100 µM (inactive) each time. Further, the GI50 was > 100 µM (inactive) in the assay on MDA-N; > 100 µM (inactive) in the assay on HCT-116; > 100 µM (inactive) with A549; 41 µM (inactive) in the assay with CCRF-CEM; > 100 µM (inactive) in the assay on Hs-578T; > 100 µM (inactive) with HOP-92. Besides, the GI50 in the assay with CAKI-1 and in the assay on HL-60 was > 100 µM (inactive) throughout.
Regarding `O=C1c2ccccc2C(=O)[C@@]23O[C@@]12C1(Oc2cccc4cccc(c24)O1)[C@@H]1O[C@@H]1[C@@H]3O`, the GI50 is 14.2 µM (inactive) in the assay with UACC-62; 4.71 µM (inactive) in the assay on OVCAR-8; 13.6 µM (inactive) in the assay with IGROV-1; 2.64 µM (inactive) in the assay with SF-539; 4.23 µM (inactive) with 786-0; 24.4 µM (inactive) in the assay with SK-MEL-5. For the same compound, the GI50 is 12.9 µM (inactive) with SF-295; 15.2 µM (inactive) with PC-3; 11.6 µM (inactive) with SN12C; 15.8 µM (inactive) with UACC-257; 4.65 µM (inactive) in the assay with OVCAR-3; 5.05 µM (inactive) in the assay on NCI/ADR-RES. In addition, the GI50 is 9.46 µM (inactive) in the assay with MDA-N; 4.4 µM (inactive) with HCT-116; 18.4 µM (inactive) in the assay on A549; 1.76 µM (inactive) in the assay on CCRF-CEM; 14.9 µM (inactive) in the assay on Hs-578T; 15.8 µM (inactive) with HOP-92. For the same compound, the results for the GI50 in the assay on CAKI-1 and in the assay with HL-60 were 11.1 µM (inactive) and 1.66 µM (inactive), respectively.
In the case of `COc1ccc2c(c1)c(=O)c1c(NCCCN(C)C)ccc3ncn2c31`, the GI50 is 11.4 µM (inactive) with UACC-62; 0.495 µM (active) with OVCAR-8; 3.5 µM (inactive) with IGROV-1; 3.93 µM (inactive) in the assay with SF-539; 1.68 µM (inactive) in the assay with 786-0; 7.67 µM (inactive) in the assay with SK-MEL-5. Also, the GI50 in the assay on SF-295 is 1.47 µM (inactive); in the assay with PC-3, 2.65 µM (inactive); in the assay with SN12C, 1.72 µM (inactive); with UACC-257, 12.2 µM (inactive); with OVCAR-3, 10.4 µM (inactive); in the assay with NCI/ADR-RES, 0.832 µM (active). The GI50 in the assay on MDA-N is 5.37 µM (inactive); in the assay on HCT-116, 0.188 µM (active); with A549 it was 1.19 µM (inactive); with CCRF-CEM, 1.61 µM (inactive); in the assay with Hs-578T, 10.6 µM (inactive); with HOP-92, 4.13 µM (inactive). Moreover, the GI50 with CAKI-1 was 5.68 µM (inactive); in the assay on HL-60 it was 4.42 µM (inactive).
As for `CCOC(=O)C(NC(=O)OCc1ccccc1)C(=O)O` (stereo not given), the GI50 with UACC-62, with OVCAR-8, with IGROV-1, in the assay on SF-539, in the assay with 786-0 and in the assay on SK-MEL-5 was > 100 µM (inactive) each time. In addition, the GI50 in the assay with SF-295, with PC-3, in the assay with SN12C, in the assay on UACC-257, in the assay on OVCAR-3 and with NCI/ADR-RES was > 100 µM (inactive) throughout. Moreover, the GI50 in the assay on MDA-N, in the assay on HCT-116, with A549, in the assay on CCRF-CEM, with Hs-578T and with HOP-92 was > 100 µM (inactive) each time. Moreover, the GI50 in the assay with CAKI-1 and in the assay with HL-60 was > 100 µM (inactive) throughout.
Consider `Cc1cccc2cc3ccc4ccccc4c3cc12`, for which the GI50 in the assay with UACC-62 is 80.9 µM (inactive); with OVCAR-8, > 100 µM (inactive); in the assay with IGROV-1, 55 µM (inactive); in the assay on SF-539, 74 µM (inactive); in the assay with 786-0, 41.7 µM (inactive); in the assay on SK-MEL-5, 21.9 µM (inactive). Besides, the GI50 in the assay with SF-295 was 40.8 µM (inactive); with PC-3 it was 66.5 µM (inactive); with SN12C, 51.6 µM (inactive); with UACC-257, 20 µM (inactive); in the assay with OVCAR-3 it was 63.2 µM (inactive); in the assay with NCI/ADR-RES, > 100 µM (inactive). For the same compound, the GI50 was 38.9 µM (inactive) in the assay with MDA-N; 30 µM (inactive) in the assay on HCT-116; 37.1 µM (inactive) in the assay on A549; 20.1 µM (inactive) in the assay on CCRF-CEM; > 100 µM (inactive) in the assay with Hs-578T; 98.9 µM (inactive) in the assay on HOP-92. Moreover, the values for the GI50 in the assay with CAKI-1 and in the assay on HL-60 were 87.1 µM (inactive) and 24.9 µM (inactive), respectively.
With `CC(C)NC(=O)OCc1c(COC(=O)NC(C)C)c(-c2cc[n+](COC(=O)C3CCCCC3)cc2)n2c1CCC2`, the GI50 in the assay on UACC-62 is 99.8 µM (inactive); in the assay with OVCAR-8, > 100 µM (inactive); in the assay on IGROV-1 it was > 100 µM (inactive); in the assay on SF-539 it was 21.9 µM (inactive); with 786-0 it was > 100 µM (inactive); in the assay with SK-MEL-5, > 100 µM (inactive). In addition, the GI50 in the assay on SF-295, in the assay on PC-3, with SN12C, with UACC-257, in the assay with OVCAR-3 and with NCI/ADR-RES was > 100 µM (inactive) in each case. Further, the GI50 is > 100 µM (inactive) with MDA-N; > 100 µM (inactive) in the assay on HCT-116; > 100 µM (inactive) with A549; 44.8 µM (inactive) with CCRF-CEM; > 100 µM (inactive) with Hs-578T; > 100 µM (inactive) with HOP-92. The GI50 with CAKI-1 was 50 µM (inactive); with HL-60, 32.4 µM (inactive).
Regarding `C=CCCC1CCCCC/C1=N\N(C)C` (stereo not given), the GI50 in the assay with UACC-62, in the assay on OVCAR-8, in the assay on IGROV-1, with SF-539, in the assay with 786-0 and in the assay on SK-MEL-5 was > 100 µM (inactive) in each case. The GI50 in the assay with SF-295, in the assay on PC-3, in the assay with SN12C, in the assay on UACC-257, with OVCAR-3 and with NCI/ADR-RES was > 100 µM (inactive) in each case. Moreover, the GI50 with MDA-N, in the assay with HCT-116, in the assay on A549, in the assay with CCRF-CEM, in the assay on Hs-578T and with HOP-92 was > 100 µM (inactive) in each case. Further, the GI50 with CAKI-1 and in the assay with HL-60 was > 100 µM (inactive) each time.

For the origin of these results see ChEMBL document CHEMBL1201862, “PubChem BioAssay data set” (2004).
